{"source": "patent US20240191187A1", "about": "“MEDIA AND METHODS FOR GROWING MAMMARY ORGANOIDS” (STEMCELL TECHNOLOGIES CANADA INC., priority 2021, published 2024)", "key": {"[1]": {"tested_on": "human mammary epithelial cells", "experiment": "Human mammary organoid cell lineage balance by flow cytometry", "settings": "for cell lineage balance, inhibitors of TGFβ signaling: ~10 μM SB431542, ~200-500 nM A77-01, ~5-25 RepSox; for cell lineage balance, ERBB receptor family ligands: ~10-50 ng/mL AREG, ~10-50 ng/mL EGF, ~50-100 ng/mL NRG1; for cell lineage balance across multiple experiments, ERBB ligands: normalized to control lacking ERBB modulators, mean of 2 experiments", "method": "(§4) Cryopreserved pellet A and pellet B were dissociated into a single cell suspension by treatment with 0.25% Trypsin-EDTA for 5 minutes at 37° C. (with intermittent trituration) and then centrifuged at (300 g for 5 minutes). The supernatant was discarded and the pellet was resuspended in a 100 μg/ml DNase solution for 1 minute at room temperature. The resulting cells were passed through a 37 μm strainer to obtain the single cell suspension.\nEach well received between 0.5-1 mL of any one of the various culture media described herein.\nThe plated single cell suspension of mammary epithelial cells formed into organoids that were passaged approximately every 7-days, with 2-3 full medium changes during such 7-day period. To passage the organoids, the Matrigel domes were broken apart by pipetting in pre-warmed 0.25% Trypsin-EDTA, incubating at 37° C. for ˜ 5-15 minutes and pipetting again. The trypsinization reaction was inactivated by washing in an equal volume of Hanks Balanced Salt Solution supplemented with 2% FBS. Depending on the density and size of organoids a 1:2-1:5 split was performed, with the cells seeded as domes, as described above. Alternatively, cells would be strained through a 37 μm strainer to obtain the single cell suspension and seeded in Matrigel domes as described above.\nOrganoids were formed in media comprising either BMP signaling activator, ˜50 ng/mL BMP2 or ˜50 ng/mL BMP4, and in media comprising either BMP signaling inhibitor, ˜25-200 ng/mL NOGGIN or ˜10-100 nM LDN193189. Just prior to the first passage, the formed organoids were dissociated and the cell lineage balance was analyzed by flow cytometry.\nOrganoids were formed in media comprising either no ligand of an ERBB receptor family member, or comprising ˜10-50 ng/mL amphiregulin (AREG), ˜10-50 ng/mL epidermal growth factor (EGF), or ˜50-100 ng/mL heregulin/neuregulin 1 (NRG1). Just prior to the first passage, the formed organoids were dissociated and the cell lineage balance was analyzed by flow cytometry.\nJust prior to the first passage, the formed organoids were dissociated and the cell lineage balance was analyzed by flow cytometry."}, "[2]": {"tested_on": "human mammary epithelial cells", "experiment": "Human mammary organoid formation, brightfield microscopy", "type": "cell-based", "settings": "media comprising NOGGIN or LDN193189 alone vs both; successive passages", "procedure": "Fragments of human mammary epithelial cells were isolated from tissue samples obtained from academic collaborators, as follows. Resected tissue samples were minced in a petri dish using a scalpel to cut in a cross-hatched pattern. The minced tissue samples were placed in a dissociation flask in standard culture medium supplemented with BSA, insulin, collagenase and hyaluronidase. The flask was gently shaken overnight on an orbital shaker placed in a 37° C. tissue incubator. The following morning the floating layer of fat was removed by pipette, and the remaining liquid was transferred to a tube and briefly centrifuged at low rpm (˜80 g for 30 seconds). The pellet (A pellet) was set aside and the supernatant was further centrifuged for an incrementally longer period of time and at an incrementally higher rpm (˜200 g for 4 minutes). The pellet (B pellet) was set aside and the supernatant was further centrifuged for a still incrementally longer period of time and at an incrementally higher rpm (˜450 g for 5 minutes).\nCryopreserved pellet A and pellet B were dissociated into a single cell suspension by treatment with 0.25% Trypsin-EDTA for 5 minutes at 37° C. (with intermittent trituration) and then centrifuged at (300 g for 5 minutes). The supernatant was discarded and the pellet was resuspended in a 100 μg/ml DNase solution for 1 minute at room temperature. […]"}, "[3]": {"tested_on": "estrogen receptor localization in human mammary organoids", "experiment": "ER localization in human mammary organoids after transient TGFβ signaling inhibitor exposure (confocal)", "type": "cell-based", "settings": "transient exposure after organoids have formed", "procedure": "(§1) In panel A) (human) and in panel B) (mouse) organoids were formed in respective organoid media of this disclosure, and were then transiently exposed to different inhibitors of TGFβ signaling. Organoids were imaged by confocal microscopy after staining for K8, K14, ER and the nuclear stain DAPI.\n(§2) Organoids were recovered from Matrigel by incubating in Corning Cell Recovery Solution for 1 hour with rocking on ice. Organoids were then fixed in 4% paraformaldehyde (PFA) at room temperature for 1 hour and stored in PBS at 4° C. After PFA fixation, antigen retrieval was performed by boiling the organoids in sodium citrate buffer for 20 minutes at 96° C. Organoids were permeabilized in a 0.5% Triton-X-100 solution in PBS overnight at room temperature. Samples were blocked by incubating overnight in a solution of 5% goat serum.\n(§3) Following fixation and permeabilization, the organoids were incubated sequentially in primary antibody and secondary antibody solutions (as summarized in the table below) overnight at room temperature. Samples were counterstained in a 2 μg/ml DAPI solution for 20 minutes and dehydrated through stepwise incubations in solutions with increasing methanol concentrations (50%, 80%, then 100% methanol). […]"}, "[4]": {"tested_on": "estrogen receptor localization in mouse mammary organoids", "experiment": "ER localization in mouse mammary organoids after transient TGFβ signaling inhibitor exposure (confocal)", "type": "cell-based", "settings": "transient exposure after organoids have formed", "procedure": "as §1, §2, §3"}, "[5]": {"tested_on": "human mammary epithelial cells", "experiment": "Human mammary organoids stained for K8/K14, confocal microscopy", "type": "cell-based", "settings": "Day 17 organoids; 50 ng/mL NRG3, 100 ng/mL AMH, 50 ng/mL GM-CSF", "procedure": "as §2\nas §3, with “methanol). Organoids were embedded in a solution of 2:1 Benzyl Benzoate-Benzyl alcohol (BABB), transferred to Ibidi glass bottom chamber slides and imaged using a Leica SP8 confocal laser scanning microscope.” for “methanol).”\nThe effects of modulating signaling through BMP were analyzed across multiple experiments in terms of total cell count among formed organoids (FIG. 9A) and the lineage balance of the cells among formed organoids (FIG. 9B). […]"}, "[6]": {"tested_on": "human mammary epithelial cells", "experiment": "Total cell count among formed human mammary organoids", "type": "cell-based", "settings": "vs control with no modulation of ERBB signaling", "method": "as §4\nEach well received between 0.5-1 mL of any one of the various culture media described herein. […]\nThe effects of modulating signaling through an ERBB receptor family member were analyzed across multiple experiments in terms of total cell count among formed organoids (FIG. 13A) and the lineage balance of the cells among formed organoids (FIG. 13B)."}}, "note": "Entries after “also recorded” stand apart in the source; their conditions may differ.", "data": [{"compound": "Cc1cccc(-c2[nH]ncc2-c2ccnc3ccccc23)n1", "note": "[A77-01, reference compound]", "values": [{"measurement": "cell lineage balance, inhibitors of TGFβ signaling", "setting": "[1]", "value": "reduce the proportion of stromal cells while either maintaining or improving the proportions of luminal cells"}]}, {"compound": "C#Cc1cccc(Nc2ncnc3cc(OCCOC)c(OCCOC)cc23)c1", "note": "[Erlotinib, reference compound]", "values": [{"measurement": "cell lineage balance, EGF receptor inhibition", "setting": "[1]; ~100 nM Gefitinib and ~100 nM Erlotinib given together, two donor samples", "value": "negligible or no effect on cell lineage balance"}]}, {"compound": "c1ccc2c(-c3cnn4cc(-c5ccc(N6CCNCC6)cc5)cnc34)ccnc2c1", "note": "[LDN193189, reference compound]", "values": [{"measurement": "formation of luminal organoids, single vs dual BMP signaling inhibitor", "setting": "[2]", "value": "appeared sufficient to bias formation of luminal organoids"}, {"measurement": "cell lineage balance, BMP signaling modulators", "setting": "[1]; just prior to first passage, ~50 ng/mL BMP2 or BMP4, ~25-200 ng/mL NOGGIN or ~10-100 nM LDN193189", "value": "decreased the number of basal cells while increasing the number of luminal cells"}]}, {"compound": "Cc1cccc(-c2[nH]ncc2-c2ccc3ncccc3n2)n1", "note": "[RepSox]", "values": [{"measurement": "localization of estrogen receptor, human organoids", "setting": "[3]", "value": "promoted the localization of estrogen receptor within nuclei"}, {"measurement": "localization of estrogen receptor, mouse organoids", "setting": "[4]", "value": "promoted the localization of estrogen receptor within nuclei"}, {"measurement": "cell lineage balance, inhibitors of TGFβ signaling", "setting": "[1]", "value": "reduce the proportion of stromal cells while either maintaining or improving the proportions of luminal cells"}]}, {"compound": "NC(=O)c1ccc(-c2nc(-c3ccc4c(c3)OCO4)c(-c3ccccn3)[nH]2)cc1", "note": "[SB431542]", "values": [{"measurement": "localization of estrogen receptor, human organoids", "setting": "[3]", "value": "promoted the localization of estrogen receptor within nuclei"}, {"measurement": "localization of estrogen receptor, mouse organoids", "setting": "[4]", "value": "promoted the localization of estrogen receptor within nuclei"}, {"measurement": "cell lineage balance, inhibitors of TGFβ signaling", "setting": "[1]", "value": "reduce the proportion of stromal cells while either maintaining or improving the proportions of luminal cells"}]}, {"compound": "Granulocyte-macrophage Colony Stimulating Factor [GM-CSF]", "values": [{"measurement": "lineage restriction of organoids formed (K8/K14 staining)", "setting": "[5]", "value": "bias the culture of mammary epithelial cells to form basal-restricted organoids; also recorded: Basal-restricted organoids were formed"}]}, {"compound": "Neuregulin 3 [NRG3]", "values": [{"measurement": "lineage restriction of organoids formed (K8/K14 staining)", "setting": "[5]", "value": "bias the culture of mammary epithelial cells to form luminal-restricted organoids; also recorded: Luminal-restricted organoids were formed"}]}, {"compound": "TGFβ1: ligand of a TGFβ receptor", "values": [{"measurement": "cell lineage balance, TGFβ receptor ligands", "setting": "[1]; ~50 ng/mL, just prior to first passage", "value": "an overall negative impact on the percentage of luminal and basal cells, while greatly increasing the proportion of stromal cells"}]}, {"compound": "epidermal growth factor [EGF]", "values": [{"measurement": "total cell count among formed organoids, ERBB modulators", "setting": "[6]", "value": "highest mitogenic activity"}, {"measurement": "cell lineage balance, ERBB receptor family ligands", "setting": "[1]; just prior to first passage", "value": "significantly reduce the number of luminal cells while significantly increasing the number of basal cells"}, {"measurement": "cell lineage balance across multiple experiments, ERBB ligands", "setting": "[1]", "value": "the greatest reduction in luminal cells and the greatest increase in basal cells"}]}, {"compound": "heregulin/neuregulin 1 [NRG1]", "values": [{"measurement": "cell lineage balance, ERBB receptor family ligands", "setting": "[1]; just prior to first passage", "value": "a minor or no effect on cell lineage balance"}, {"measurement": "cell lineage balance across multiple experiments, ERBB ligands", "setting": "[1]", "value": "a higher percentage of luminal cells and a reduction in the percentage of basal cells"}]}]}
